Measured values: US9669035B2, “Combinations comprising PDE 2 inhibitors such as 1-aryl-4-methyl-[1,2,4]triazolo-[4,3-A]]quinoxaline compounds and PDE 10 inhibitors for use in the treatment of neurological of metabolic disorders” (Janssen Pharmaceutica NV, priority 2012, dated 2017)
Counter-ions that a name gives are not always drawn. Like-named read-outs stand apart in the source and are kept apart here.

Columns and labels:
[1] = test system: cGMP levels in the rat brain; conditions: increase versus control
[2] = test system: d-Amphetamine-induced hyperlocomotion in rats; assay: d-Amphetamine-induced hyperlocomotion in rats: potentiation of the effect of MP-10; assay type: in vivo, rat; conditions: SC, d-amphetamine (1.25 mg/kg, s.c.) + MP-10 (2.5 mg/kg, s.c.)
[3] = test system: d-Amphetamine-induced hyperlocomotion in rats; assay: d-Amphetamine-induced hyperlocomotion in rats: MP-10 or B-1a alone (FIGS. 6-8); assay type: in vivo, rat; conditions: 40 mg/kg s.c., 1 h
[4] = test system: Apomorphine-induced agitation in rats; assay: Inhibition of apomorphine-induced agitation in rats in combination with MP-10; assay type: in vivo, rat; conditions: SC, MP-10 (0.63 mg/kg) + apomorphine (1.0 mg/kg) i.v.
Method: Inhibition of Apomorphine-induced Agitation in Rats in combination with MP-10 but the animals were simultaneously challenged with MP-10 (0.63 mg/kg) in addition to apomorphine (1.0 mg/kg) via one injection (2 ml/kg, i.v.), at a fixed time interval (standard 1 h) after s.c. or p.o. dosing of test compound or solvent. Twelve times, every 5 min, the intensity of agitation was scored 0 to 3.

[5] = test system: Apomorphine-induced agitation in rats; assay: Inhibition of apomorphine-induced agitation in rats (APO); conditions: for Dose at max effect / Max effect (lowest median cumulative agitation score) / LAD (lowest active dose): SC; for Max effect (lowest median cumulative agitation score): at the dose at max effect; for LAD (lowest active dose): lowest dose at which >=67% tested animals respond
[6] = test system: Apomorphine-induced agitation in rats; assay: Inhibition of apomorphine-induced agitation in rats in combination with Compound A and Compound B (FIGS. 4, 5); assay type: in vivo, rat; conditions: -1 h
[7] = test system: d-Amphetamine-induced hyperlocomotion in rats; assay: Inhibition of d-amphetamine-induced hyperlocomotion in rats in combination with Compound A and Compound B (FIGS. 9, 10); assay type: in vivo, rat; conditions: B-1a 0.63-5.0 mg/kg s.c., -1 h
PDE2 = PDE2 (Rattus norvegicus (Rat), UniProt Q01062); conditions: rat brain sections
[8] = target: Rat recombinant PDE10A (rPDE10A2) (Rattus norvegicus (Rat), UniProt Q9QYJ6); assay: In vitro assay PDE10A (SPA, 3H-cAMP); assay type: biochemical; conditions: -log IC50 expressed in mol/L
[9] = target: Human recombinant PDE2A (hPDE2A) (Homo sapiens (Human), UniProt O00408); assay: In vitro assay PDE2A (SPA, 3H-cGMP); assay type: biochemical; conditions: -log IC50 expressed in mol/L
Sequence of Human recombinant PDE2A (hPDE2A) (O00408 whole entry): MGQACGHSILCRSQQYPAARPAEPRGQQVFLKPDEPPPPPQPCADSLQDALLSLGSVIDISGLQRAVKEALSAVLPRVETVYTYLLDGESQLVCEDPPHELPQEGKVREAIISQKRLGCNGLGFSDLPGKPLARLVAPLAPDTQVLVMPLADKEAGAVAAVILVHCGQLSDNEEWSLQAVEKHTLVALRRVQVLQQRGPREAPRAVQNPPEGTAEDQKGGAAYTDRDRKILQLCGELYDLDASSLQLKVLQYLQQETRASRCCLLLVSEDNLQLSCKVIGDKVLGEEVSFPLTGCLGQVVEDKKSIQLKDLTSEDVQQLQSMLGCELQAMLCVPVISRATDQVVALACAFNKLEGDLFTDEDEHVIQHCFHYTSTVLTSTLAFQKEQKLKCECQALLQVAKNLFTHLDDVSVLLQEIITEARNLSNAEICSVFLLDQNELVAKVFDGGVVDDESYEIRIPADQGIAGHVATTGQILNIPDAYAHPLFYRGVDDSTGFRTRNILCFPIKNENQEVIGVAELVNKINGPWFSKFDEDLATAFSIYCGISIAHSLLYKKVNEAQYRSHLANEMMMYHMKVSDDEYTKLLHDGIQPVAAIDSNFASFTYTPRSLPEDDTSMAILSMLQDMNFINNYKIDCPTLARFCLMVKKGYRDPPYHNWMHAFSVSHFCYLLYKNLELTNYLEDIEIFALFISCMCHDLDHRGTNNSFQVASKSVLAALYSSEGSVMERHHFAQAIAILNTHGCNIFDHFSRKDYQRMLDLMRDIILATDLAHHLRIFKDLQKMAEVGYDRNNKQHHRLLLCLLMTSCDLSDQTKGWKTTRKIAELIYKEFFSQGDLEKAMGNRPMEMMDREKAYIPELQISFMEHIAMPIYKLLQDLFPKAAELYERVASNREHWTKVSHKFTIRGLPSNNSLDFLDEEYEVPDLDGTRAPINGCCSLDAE

Sequence of Rat recombinant PDE10A (rPDE10A2) (Q9QYJ6 whole entry): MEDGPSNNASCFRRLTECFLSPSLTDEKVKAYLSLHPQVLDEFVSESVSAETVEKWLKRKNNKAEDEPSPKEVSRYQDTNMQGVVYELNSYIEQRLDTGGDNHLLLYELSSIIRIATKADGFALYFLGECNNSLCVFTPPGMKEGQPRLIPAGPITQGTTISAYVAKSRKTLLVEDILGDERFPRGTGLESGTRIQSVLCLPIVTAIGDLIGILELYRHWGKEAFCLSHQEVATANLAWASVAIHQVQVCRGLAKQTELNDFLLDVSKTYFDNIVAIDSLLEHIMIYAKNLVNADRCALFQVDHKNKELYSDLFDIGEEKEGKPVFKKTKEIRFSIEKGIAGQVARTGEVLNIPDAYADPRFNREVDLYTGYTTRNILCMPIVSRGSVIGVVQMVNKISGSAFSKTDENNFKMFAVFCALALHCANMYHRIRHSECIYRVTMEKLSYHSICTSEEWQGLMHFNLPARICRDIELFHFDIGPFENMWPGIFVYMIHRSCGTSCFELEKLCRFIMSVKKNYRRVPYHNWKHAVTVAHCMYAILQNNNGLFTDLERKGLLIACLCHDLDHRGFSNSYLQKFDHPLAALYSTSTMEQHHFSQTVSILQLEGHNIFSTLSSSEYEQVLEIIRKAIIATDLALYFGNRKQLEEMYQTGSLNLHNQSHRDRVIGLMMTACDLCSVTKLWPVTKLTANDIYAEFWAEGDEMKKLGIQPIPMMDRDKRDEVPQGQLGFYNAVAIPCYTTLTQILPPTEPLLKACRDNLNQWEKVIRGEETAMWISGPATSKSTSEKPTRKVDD
Sequence of PDE2 (Q01062 whole entry): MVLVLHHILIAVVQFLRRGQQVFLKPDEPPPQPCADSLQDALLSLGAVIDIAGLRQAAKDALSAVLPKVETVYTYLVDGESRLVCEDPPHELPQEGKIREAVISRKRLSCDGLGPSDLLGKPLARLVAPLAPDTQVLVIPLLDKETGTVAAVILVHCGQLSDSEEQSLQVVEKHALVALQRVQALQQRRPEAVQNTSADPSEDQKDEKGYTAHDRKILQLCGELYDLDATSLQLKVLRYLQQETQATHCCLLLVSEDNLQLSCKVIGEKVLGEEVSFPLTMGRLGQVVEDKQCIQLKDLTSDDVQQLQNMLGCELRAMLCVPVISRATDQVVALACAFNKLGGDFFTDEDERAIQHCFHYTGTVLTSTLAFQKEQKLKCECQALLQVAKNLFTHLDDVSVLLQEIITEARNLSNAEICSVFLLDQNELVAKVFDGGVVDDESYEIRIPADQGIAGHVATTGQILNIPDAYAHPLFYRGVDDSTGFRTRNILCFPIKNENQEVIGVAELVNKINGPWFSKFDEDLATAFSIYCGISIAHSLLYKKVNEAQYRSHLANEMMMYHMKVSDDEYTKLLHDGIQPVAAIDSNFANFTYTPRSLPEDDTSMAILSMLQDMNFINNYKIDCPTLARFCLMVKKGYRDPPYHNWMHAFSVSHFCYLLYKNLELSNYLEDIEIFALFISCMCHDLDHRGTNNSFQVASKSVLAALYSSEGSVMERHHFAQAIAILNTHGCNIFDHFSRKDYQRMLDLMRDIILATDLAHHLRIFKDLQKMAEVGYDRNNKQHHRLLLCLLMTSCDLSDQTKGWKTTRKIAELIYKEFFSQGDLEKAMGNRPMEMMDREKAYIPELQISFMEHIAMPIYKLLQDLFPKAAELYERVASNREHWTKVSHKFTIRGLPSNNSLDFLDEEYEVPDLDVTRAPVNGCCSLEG

CCCCOc1cncc(-c2nnc3c(C)nc4ccc(CN5CCOCC5)cc4n23)c1 [Compound B-1a, 1-(5-Butoxypyridin-3-yl)-4-methyl-8-(morpholin-4-ylmethyl) [1,2,4]triazolo[4,3-a]quinoxaline hydrochloride]
incr vs contr (pmol cGMP/ml) (measured) ([1]; 2.5 mpk): 5.4 pmol cGMP/ml
incr vs contr (pmol cGMP/ml) (measured) ([1]; 10 mpk): 9.7 pmol cGMP/ml
Distance Total <2500 cm Effect ([2]; Time -60, dose 0.31): 3066 cm
Distance Total <2500 cm Effect ([2]; Time -60, dose 0.63): 2525 cm
Distance Total <2500 cm Effect ([2]; Time -60, dose 1.25): 1664 cm
Distance Total <2500 cm Effect ([2]; Time -60, dose 2.5): 1659 cm
Distance Total <2500 cm Effect ([2]; Time -60, dose 5): 1281 cm
Distance Total <2500 cm Effect ([2]; Time -60, dose 10): 727.6 cm
effect against d-amphetamine-induced hyperlocomotion, alone [3]: ineffective per se
Inh. of agitation < 10 Effect (cumulative agitation score) ([4]; Time 60, dose 0.63): 18
Inh. of agitation < 10 Effect (cumulative agitation score) ([4]; Time 60, dose 1.25): 10
Inh. of agitation < 10 Effect (cumulative agitation score) ([4]; Time 60, dose 2.5): 11
Inh. of agitation < 10 Effect (cumulative agitation score) ([4]; Time 60, dose 5): 6
Inh. of agitation < 10 Effect (cumulative agitation score) ([4]; Time 60, dose 10): 7
Inh. of agitation < 10 Effect (cumulative agitation score) ([4]; Time 60, dose 40): 1
Dose at max effect [5]: 40
Max effect (lowest median cumulative agitation score) [5]: 23
LAD (lowest active dose) [5]: >40
effect against apomorphine-induced agitation, administered alone ([5]; without MP-10, at the tested doses): ineffective against apomorphine
effect on apomorphine-induced agitation combined with Compound A or Compound B ([6]; B-1a 5.0 mg/kg s.c., PDE10-i 2.5 mg/kg s.c.): significantly potentiated the effect of both PDE10-is
effect on apomorphine-induced agitation combined with the solvent of the PDE10-is ([6]; B-1a 0.63-5.0 mg/kg s.c.): did not affect apomorphine-induced agitation
effect on d-amphetamine-induced hyperlocomotion combined with the solvent of the PDE10-is [7]: ineffective against the d-amphetamine-induced hyperlocomotion
effect on d-amphetamine-induced hyperlocomotion combined with Compound A or Compound B ([7]; PDE10-i 2.5 mg/kg s.c.): potentiated the effect of both PDE10-is

O=P1(O)OCC2O[C@@H](n3cnc4ccccc43)[C@H](O)C2O1 (some centres unmarked) [cBIMP]
effect on specific binding of [3H]B-1a (PDE2): increase the specific binding

Cc1nc2ccc(CN3CCOCC3)cc2n2c(-c3ccccc3Cl)nnc12 [Compound B-3, 1-(2-Chlorophenyl)-4-methyl-8-(morpholin-4-ylmethyl)[1,2,4]triazolo[4,3-a]-quinoxaline]
Dose at max effect [5]: 5
Max effect (lowest median cumulative agitation score) [5]: 14
LAD (lowest active dose) [5]: 5
PIC50 PDE10 [8]: 7.47
pIC50 PDE2 [9]: 8.64
